Results reported in patent US20260048062A1, “FUSED AMINO PYRIMIDINE COMPOUNDS FOR TREATMENT OF PSYCHOSIS AND PSYCHOTIC DISORDERS” (Ovid Therapeutics Inc., priority 2024, published 2026).

What was measured:
[1] = system: 18-20 Div hippocampal neurons; assay: Gramicidin perforated patch clamp, EGABA in hippocampal neurons; format: cell-based, Sprague Dawley
Description: Neuronal Cultures. Hippocampal neurons were prepared from Sprague Dawley E18 embryos and plated at 450,000 per dish and maintained at 37° C. in a humidified 5% CO2 incubator for 10-25 days before experimentation (Lee et al., Nat. Neurosci. 14, 736-743 (2011)).
At this developmental stage, GABAAR receptor activation leads to hyperpolarization, a phenomenon critically dependent upon KCC2 (Kontou et al., J Biol Chem, 100364 (2021)).
Neuronal Patch clamp assays. Neuronal cell culture recordings were performed in bath saline at 34° C. For gramicidin perforated-patch experiments, pipettes contained (in mM): 140 KCl and 10 HEPES, pH 7.4 KOH. […] Bath saline contained the following (in mM): 140 NaCl, 2.5 KCl, 2.5 CaCl2, 2.5 MgCl2, 10 HEPES, and 11 glucose, pH 7.4 NaOH (Kontou et al., 2021, supra). All compound solutions were applied to cells using a three-barreled 700 μm pipe positioned just above the cell (Warner Instruments). […] 10 mV voltage-ramp protocols over 1-s periods were used to determine the reversal potentials of the leak-subtracted muscimol-activated GABAAR currents. All voltages from whole-cell experiments were corrected offline using a calculated liquid junction potential value (13.6 mV) in Clampex (Molecular Devices). For gramicidin perforated-patch experiments, intracellular Cl^− values were back-calculated using measured EGABA values and the Nernst equation: […]
Measurements were performed in the presence of bumetanide […] and tetrodotoxin (TTX; 300 nM) to limit the contributions of NKCC1 and activity dependent shifts in chloride levels, respectively (Lee et al., 2011, supra).

[2] = system: panel of 144 protein kinases; assay: SelectScreen panel of 144 protein kinases; format: biochemical; settings: includes PKC isoforms, OSR1, SPAK (STK39), WNK
Description: Aliquots of HEK-293 cells expressing KCC2 were exposed to 30 μM SSA, heated from 37-55° C. The remaining level of soluble native KCC2 at each temperature was measured by immunoblotting and normalized to the level seen at 37° C. which was given a value of 1. […] This panel included protein kinase C isoforms, OSR1, SPAK (STK39) and with-no-lysine kinases (WNK), all of which phosphorylate KCC2 on multiple residues to indirectly modify its activity (Kahle et al., 2013, supra; Smalley et al., 2020, supra).

C[C@@H]1CN(c2nc3c(c(Nc4ccc(C5CCCCC5)cc4)n2)COC3)CCO1 [Compound A, (R)—N-(4-cyclohexylphenyl)-2-(2-methylmorpholino)-5,7-dihydrofuro[3,4-d]pyrimidin-4-amine]
EGABA at 0 min ([1]; 300 nM group, before treatment, bumetanide and TTX present): −75±3.1 mV
EGABA at 15 min ([1]; 300 nM, 15 min, bumetanide and TTX present): −85.1±4.2 mV
reduction in Cl− ([1]; 300 nM, 15 min, from EGABA by Nernst equation): 2.2 ± 0.6 mM
activity of a panel of 144 protein kinases [2]: did not modify the activity
